Values joined by “and” are separate entries in the source; they are usually repeats but may differ in a detail not shown here. Equal values may be shown once.
Assays:
rabbit eyes = assay: Irritation to rabbit eyes (Test Example 3); format: in vivo; settings: 0.88% compared with 3.50%
From the text: Irritation: examined concurrently with the pupil diameter.
The numerical results of pupil changes are shown in Tables 3-1 to 3-4, and the changes in eye irritation phenomenon are shown in FIGS. 13 and 14.

rabbit pupil = assay: Rabbit pupil diameter change, pilocarpine p-toluate at different concentrations (Test Example 3); format: in vivo
Procedure: Under the condition of normal saline, the onset time, strength of effect, duration of effect, and irritation of 1.25% pilocarpine hydrochloride and different concentrations (0.88%, 1.75%, 3.50%) of pilocarpine p-toluate were tested.
Each rabbit was subjected to eye drop administration in the left eye (using a pipette), with an administration volume of 100 μL.
Number of animals: 6 rabbits per compound.
Administration schedule: single administration.
• the pupil diameter of the left eye of the rabbits was measured at time points of −0.5 h (i.e., half an hour before administration), 5 min, 10 min, 15 min, 0.5 h, 3 h and 4 h relative to administration, with the measurement performed 3 times for each rabbit at each time point.

SMILES: CC[C@@H]1C(=O)OC[C@@H]1Cc1cncn1C [JQ-6, Pilocarpine p-toluate]
- irritation to rabbit eyes (rabbit eyes): significantly lower than that caused by the 3.50% pilocarpine p-toluate
- strength of effect at each time point compared to 1.25% pilocarpine hydrochloride (rabbit pupil; 0.88% (half molar concentration of pilocarpine)): demonstrated increased strength of effect at each time point
- Percentage change in pupil diameter (rabbit pupil; 0.88%, 5 min, average of 6 rabbits): −10.07%
- Percentage change in pupil diameter (rabbit pupil; 0.88%, 5 min, individual rabbit): −4.80% and −6.70% and −13.54% and −9.41% and −12.03% and −13.93%
- Percentage change in pupil diameter (rabbit pupil; 0.88%, 10 min, average of 6 rabbits): −36.21%
- Percentage change in pupil diameter (rabbit pupil; 0.88%, 10 min, individual rabbit): −33.75% and −34.62% and −30.54% and −48.90% and −41.07% and −28.39%
- Percentage change in pupil diameter (rabbit pupil; 0.88%, 15 min, average of 6 rabbits): −40.86%
- Percentage change in pupil diameter (rabbit pupil; 0.88%, 15 min, individual rabbit): −43.40% and −41.17% and −36.73% and −43.68% and −50.07% and −30.13%
- Percentage change in pupil diameter (rabbit pupil; 0.88%, 0.5 h, average of 6 rabbits): −37.44%
- Percentage change in pupil diameter (rabbit pupil; 0.88%, 0.5 h, individual rabbit): −36.60% and −41.12% and −36.25% and −37.28% and −44.65% and −28.71%
- Percentage change in pupil diameter (rabbit pupil; 0.88%, 3 h, average of 6 rabbits): −10.34%
- Percentage change in pupil diameter (rabbit pupil; 0.88%, 3 h, individual rabbit): −9.65% and −14.66% and −12.43% and −7.91% and −14.57% and −2.85%
- Percentage change in pupil diameter (rabbit pupil; 0.88%, 4 h, average of 6 rabbits): 0.70%
- Percentage change in pupil diameter (rabbit pupil; 0.88%, 4 h, individual rabbit): 3.67% and −2.65% and 4.83% and −0.54% and −1.39% and 0.26%
- strength of effect at each time point compared to 1.25% pilocarpine hydrochloride (rabbit pupil; 1.75% (same molar concentration of pilocarpine)): the increase in strength of effect at each time point was more significant
- Percentage change in pupil diameter (rabbit pupil; 1.75%, 5 min, individual rabbit): −18.36% and −12.49% and −14.04%
- Percentage change in pupil diameter (rabbit pupil; 1.75%, 10 min, individual rabbit): −44.23% and −37.19% and −44.10%
- Percentage change in pupil diameter (rabbit pupil; 1.75%, 15 min, individual rabbit): −49.50% and −43.41% and −45.41%
- Percentage change in pupil diameter (rabbit pupil; 1.75%, 0.5 h, individual rabbit): −47.81% and −42.82% and −44.78%
- Percentage change in pupil diameter (rabbit pupil; 1.75%, 3 h, individual rabbit): −12.34% and −6.91%
- Percentage change in pupil diameter (rabbit pupil; 1.75%, 4 h, individual rabbit): −0.45% and −0.05%
- strength of effect at each time point compared to 1.25% pilocarpine hydrochloride (rabbit pupil; 3.50% (2 times molar concentration of pilocarpine)): significantly enhanced
